Results published in the supplement of paper PMC10949913.

Columns and labels:
Assay in all cases: area under concentration-response curve (viability) (AUC (a.u.)); higher = less active
Settings in all cases: 48 h
CU-ACC1 = system: CU-ACC1
Procedure, shortened: (§1)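 Luminescence from CellTiter-Glo, read after 48 h, measured three adrenocortical carcinoma cell lines treated in 1,536-well plates with library compounds at 11 concentrations. Values were normalised per plate to vehicle and empty-well controls. The AC50 and area under the curve come from fitted concentration-response curves in inhibitory or non-responding classes only.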

CU-ACC2 = system: CU-ACC2
Procedure, shortened: as §1

NCI-H295R = system: NCI-H295R
Procedure, shortened: as §1

| Structure (SMILES) | area under concentration-response curve (CU-ACC1) | area under concentration-response curve (CU-ACC2) | area under concentration-response curve (NCI-H295R) |
| --- | --- | --- | --- |
| CNC(=O)Cn1cc(-c2ccc3c(c2)C(F)CC32NC(=O)N(CC(=O)N(Cc3ccc(F)cc3)[C@@H](C)C(F)(F)F)C2=O)cn1 (some centres undefined) | 517 | 549 | 504 |
| COCCOc1ccc(N2CCN(CCn3ncc4c3nc(N)n3nc(-c5ccco5)nc43)CC2)cc1 | 552 | 606 | 530 |
| CC(C)(Sc1ccc(CCN(CCCCC2CCCCC2)C(=O)NC2CCCCC2)cc1)C(=O)O | 506 | 585 | 501 |
| COc1ccc(C(=O)N2CCN(C(=O)/C=C/c3ccc(Br)cc3)CC2)cc1 | 499 | 638 | 536 |
| CC1(C)S[C@H]2[C@H](NC(=O)[C@@H](N)c3ccc(O)cc3)C(=O)N2[C@H]1C(=O)O | 511 | 597 | 545 |
| CN(CCOc1ccc(N[S+](C)(=O)[O-])cc1)CCc1ccc(N[S+](C)(=O)[O-])cc1 | 541 | 637 | 586 |
| CC(C)(C)C(=O)CN1C(=O)[C@H](NC(=O)Nc2cccc(C(=O)O)c2)CN(C2CCCCC2)c2ccccc21 | 518 | 612 | 559 |
| CCOC(=O)c1c(C)n(C)c2ccc(O)cc12 | 536 | 593 | 520 |
| CCn1c(-c2nonc2N)nc2cnc(Oc3cccc(NC(=O)c4ccc(OCCN5CCOCC5)cc4)c3)cc21 | 494 | 547 | 511 |
| COc1cc(Nc2ncc(F)c(Nc3ccc4c(n3)NC(=O)C(C)(C)O4)n2)cc(OC)c1OC | 410 | 612 | 563 |
| C[C@@H]1CC2=C(C=C3OCOC3=C2)C(=N\N1C(C)=O)/C4=CC=C(N)C=C4 | 394 | 398 | 406 |
| ClC1=C(N\C2=N\CCN2)C3=NSN=C3C=C1 | 412 | 609 | 541 |
| CNC(=O)c1ccc(N2C(=S)N(c3ccc(C#N)c(C(F)(F)F)c3)C(=O)C23CCC3)cc1F | 488 | 500 | 534 |
| Cc1ccccc1N1C(=O)c2cc([S+](N)(=O)[O-])c(Cl)cc2NC1C (centres undefined) | 495 | 599 | 512 |
| CC1C\2C(O)C3C(N(C)C)C(=O)\C(=C(O)/C3(O)C(=O)C2=C(O)/C4=C1C=CC=C4O)C(N)=O (centres undefined) | 473 | 573 | 502 |
| CCN([C@H]1CC[C@@H](CC1)N(C)CCOC)C2=C(C)C(=CC(=C2)C#CCN3CCOCC3)C(=O)NC\C4=C(C)\C=C(\C)NC4=O | 536 | 500 | 552 |
| C[N+](C)([O-])CCNc1ccc(NCC[N+](C)(C)[O-])c2c1C(=O)c1c(O)ccc(O)c1C2=O | 505 | 540 | 496 |

| Structure (SMILES) | area under concentration-response curve (CU-ACC1) | area under concentration-response curve (CU-ACC2) | area under concentration-response curve (NCI-H295R) |
| --- | --- | --- | --- |
| CO[C@H](C1COC1)C2=C(Cl)C3=C(CCN(C\C4=C(OC)\C=C(\C)NC4=O)C3=O)C(=C2)Cl | 496 | 579 | 536 |
| O=C1N\C=N/C2=C1C=N[NH]2 | 522 | 531 | 557 |
| CC(C)[C@H](N)C(=O)OCCOC[N]1C=NC2=C1\N=C(N)/NC2=O | 449 | 394 | 390 |
| OC[C@H]1O[C@H](C[C@@H]1O)N2\C=C(F)/C(=O)NC2=O | 516 | 584 | 497 |
| CN(C)[C@H]\1[C@@H]2C[C@@H]\3CC4=C(C(=C(NC(=O)CNC(C)(C)C)C=C4N(C)C)O)C(=O)C3=C(O)/[C@@]2(O)C(=O)\C(=C1O)C(N)=O | 380 | 452 | 379 |
| CCOC(=O)\C1=C\[C@@H](OC(CC)CC)[C@H](NC(C)=O)[C@@H](N)C1 | 508 | 602 | 547 |
| C[C@]\12CC[C@H](O)CC1=C/C[C@@H]3[C@@H]2CC[C@@]\4(C)[C@H]3C\C=C4C5=CN=CC=C5 | 522 | 588 | 509 |
| COC1=CC=C(C=C1)C/2=C(OC3O[C@@H](C)[C@H](O)[C@@H](O)[C@H]3O)/C(=O)C4=C(O2)C(=C(OC5O[C@H](CO)[C@@H](O)[C@H](O)[C@H]5O)C=C4O)CC=C(C)C (some centres undefined) | 510 | 624 | 564 |
| CC[C@H](NC(C)C)[C@H](O)C1=CC=C(O)C2=C1\C=C/C(=O)N2 | 566 | 650 | 564 |
| CCC(C)CCCCC(=O)N[C@@H](CCN)C(=O)NC(C(=O)N[C@H](CCN)C(=O)N[C@@H]1CCNC(=O)C([C@@H](C)O)NC(=O)[C@@H](CCN)NC(=O)[C@@H](CCN)NC(=O)[C@@H](CC(C)C)NC(=O)[C@H](Cc2ccccc2)NC(=O)[C@H](CCN)NC1=O)[C@@H](C)O (some centres undefined) | 505 | 631 | 553 |
| CCCCCCNC(=O)N1\C=C(F)/C(=O)NC1=O | 513 | 633 | 589 |
| N#C/N=C(\NCCCCCCOc1ccc(Cl)cc1)Nc1ccncc1 | 269 | 367 | 425 |
| Cc1c(F)cccc1NC(=O)Nc1ccc(Cl)c([S+](=O)([O-])[C@H]2CCCNC2)c1O | 540 | 545 | 552 |
| CN[C@@H]1[C@@H](O)[C@@H](O[C@@H]2[C@@H](O)[C@H](O[C@H]3O[C@H](CN)[C@@H](O)[C@H](O)[C@H]3O)[C@@H](N)C[C@H]2NC(=O)C(O)CN)OC[C@]1(C)O.O=S(=O)(O)O (some centres undefined) | 526 | 601 | 553 |
| Oc1nc(-c2ccc(C(F)(F)F)cc2)nc2c1CSCC2 | 511 | 509 | 483 |
| CC(C)N1C(=O)NC(=C/C1=O)\N[C@@H](C)C2=CC=CC=C2 | 471 | 552 | 497 |
